# Assay results: ChEMBL document CHEMBL5150036, “Photoredox-based late-stage functionalization in SAR study for in vivo potent glucosylceramide synthase inhibitor” (Bioorg Med Chem Lett, 2022)
# Experiments:
# [1] = Metabolic stability in human liver microsomes assessed as intrinsic clearance at 1 uM in the presence of NADPH regenerating system by LC/MS/MS analysis; assay type: ADME, Microsome; conditions: read-out: CLH
# [2] = Metabolic stability in mouse liver microsomes assessed as intrinsic clearance at 1 uM in the presence of NADPH regenerating system by LC/MS/MS analysis; assay type: ADME, Microsome; conditions: read-out: CLH
# [3] = 1-Octanol/aqueous buffer partition coefficient, logD of the compound at pH 7.4 by chromatographic method; assay type: physicochemical
# [4] = Drug concentration in ICR mouse plasma at 10 mg/kg, po measured after 60 mins by LC-MS/MS analysis; assay type: ADME, organism-based
# [5] = Drug concentration in ICR mouse brain at 10 mg/kg, po measured after 60 mins by LC-MS/MS analysis; assay type: ADME, organism-based; conditions: read-out: Ct
# [6] = Unbound brain-to-plasma concentration ratio in ICR mouse at 10 mg/kg, po measured after 60 mins by LC-MS/MS analysis; assay type: ADME, organism-based; conditions: read-out: K(p,uu,brain)
# [7] = Unbound drug concentration in ICR mouse brain at 10 mg/kg, po measured after 60 mins by LC-MS/MS analysis; assay type: ADME, organism-based; conditions: in vivo, 1 h
# [8] = Unbound drug concentration in ICR mouse plasma at 10 mg/kg, po measured after 60 mins by LC-MS/MS analysis; assay type: ADME, organism-based; conditions: in vivo, 1 h
microsomal CLint at 1 µM [1] [µL/min/mg],microsomal CLint at 1 µM [2] [µL/min/mg],chromatographic logD [3],concentration at 1 h [4] [ng/mL],concentration at 1 h [5] [ng/g],Kp uu at 1 h [6],Drug uptake(free) [7] [nM],Cp(f) [8] [nM],Compound
17,27,2.2,,,,,,CC(C)(O)c1ccc(N2Cc3c(ccnc3-c3ccccc3OCC(F)F)C2=O)cc1
,,2.86,,,,,,CC(C)(O)c1ccc(N2Cc3c(cc(C(F)F)nc3-c3ccccc3OCC(F)F)C2=O)cc1
,4,2.85,1940,1140,0.11,43,387,Cc1cc2c(c(-c3ccccc3OCC(F)(F)F)n1)CN(c1ccc(C(C)(C)O)cc1)C2=O
,,1.85,,,,,,CN(C)C(=O)c1cc2c(c(-c3ccccc3OCC(F)F)n1)CN(c1ccc(C(C)(C)O)cc1)C2=O
33,52,2.9,76,17,0.04,0.7,17,CC(C)(O)c1ccc(N2Cc3c(cc(C4(C)COC4)nc3-c3ccccc3OCC(F)(F)F)C2=O)cc1
,1,2.69,,,,,,Cc1cc2c(c(-c3ccccc3OCC(F)F)n1)CN(c1ccc(C(C)(C)O)cc1)C2=O
1,5,2.98,,,,,,CC(C)(O)c1ccc(N2Cc3c(cc(C4CCOCC4)nc3-c3ccccc3OCC(F)F)C2=O)cc1
33,56,4.63,,,,,,CC(C)(O)c1ccc(N2Cc3c(cc(C4CCCCC4)nc3-c3ccccc3OCC(F)F)C2=O)cc1
61,46,3.19,,,,,,CC(C)(O)c1ccc(N2Cc3c(cc(C4CCCOC4)nc3-c3ccccc3OCC(F)F)C2=O)cc1 (racemic)
,1,3.69,,,,,,CC(C)(O)c1ccc(N2Cc3c(cc(C(C)(C)F)nc3-c3ccccc3OCC(F)F)C2=O)cc1
40,12,2.37,,,,,,CC(C)(O)c1ccc(N2Cc3c(ccnc3-c3ccccc3OCC(F)(F)F)C2=O)cc1
16,32,2.76,284,65,0.03,3.9,124,CC(C)(O)c1ccc(N2Cc3c(cc(C4(C)COC4)nc3-c3ccccc3OCC(F)F)C2=O)cc1
3,,2.77,,,,,,CC(C)(O)c1ccc(N2Cc3c(cc(C(C)(C)O)nc3-c3ccccc3OCC(F)F)C2=O)cc1
